Results reported in ChEMBL document CHEMBL6078666, “Discovery of Novel Coumarin Pleuromutilin Derivatives as Potent Anti-MRSA Agents” (J Med Chem, 2024).
Values after ≈ are worked out from the molar mass of the structure shown.

Tests used:
Type in all cases: functional
Streptococcus pneumoniae [1] = assay: Antibacterial activity against penicillin-resistant Streptococcus pneumoniae ATCC 51916 assessed as bacterial growth inhibition measured after 20 hrs by broth dilution method
Staphylococcus aureus [2] = assay: Antibacterial activity against methicillin-resistant Staphylococcus aureus clinical isolate 202313160 assessed as bacterial growth inhibition measured after 20 hrs by broth dilution method
Staphylococcus aureus [3] = assay: Ratio of MBC to MIC against methicillin-resistant Staphylococcus aureus clinical isolate 202405157
Enterococcus faecium [4] = assay: Ratio of MBC to MIC against vancomycin-resistant Enterococcus faecium clinical isolate 202308456
Streptococcus pneumoniae [5] = assay: Antibacterial activity against penicillin-intermediate Streptococcus pneumoniae ATCC 49619 assessed as bacterial growth inhibition measured after 20 hrs by broth dilution method
[6] = tested on: Staphylococcus epidermidis; assay: Antibacterial activity against methicillin-resistant Staphylococcus epidermidis clinical isolate 202409139 assessed as bacterial growth inhibition measured after 20 hrs by broth dilution method
Streptococcus pneumoniae [7] = assay: Ratio of MBC to MIC against penicillin-intermediate Streptococcus pneumoniae ATCC 49619
Staphylococcus aureus [8] = assay: Antibacterial activity against methicillin-resistant Staphylococcus aureus ATCC 43300 assessed as bacterial growth inhibition measured after 20 hrs by broth dilution method
[9] = tested on: Staphylococcus epidermidis; assay: Ratio of MBC to MIC against methicillin-resistant Staphylococcus epidermidis clinical isolate 202409139
Staphylococcus aureus [10] = assay: Antibacterial activity against methicillin-resistant Staphylococcus aureus ATCC 33591 assessed as bacterial growth inhibition measured after 20 hrs by broth dilution method
Staphylococcus aureus [11] = assay: Antibacterial activity against methicillin-resistant Staphylococcus aureus clinical isolate 202311772 assessed as bacterial growth inhibition measured after 20 hrs by broth dilution method
[12] = tested on: Staphylococcus epidermidis; assay: Antibacterial activity against methicillin-resistant Staphylococcus epidermidis clinical isolate 202409454 assessed as bacterial growth inhibition measured after 20 hrs by broth dilution method
[13] = tested on: Staphylococcus epidermidis; assay: Ratio of MBC to MIC against Staphylococcus epidermidis ATCC 51625
Enterococcus faecium [14] = assay: Antibacterial activity against vancomycin-resistant Enterococcus faecium ATCC 51559 assessed as bacterial growth inhibition measured after 20 hrs by broth dilution method
[15] = tested on: Staphylococcus epidermidis; assay: Ratio of MBC to MIC against methicillin-resistant Staphylococcus epidermidis clinical isolate 202409454
Enterococcus faecium [16] = assay: Ratio of MBC to MIC against vancomycin-resistant Enterococcus faecium ATCC 700221
Staphylococcus aureus [17] = assay: Ratio of MBC to MIC against Staphylococcus aureus ATCC 43300
Staphylococcus aureus [18] = assay: Antibacterial activity against methicillin-resistant Staphylococcus aureus clinical isolate 202405157 assessed as bacterial growth inhibition measured after 20 hrs by broth dilution method
Enterococcus faecium [19] = assay: Antibacterial activity against vancomycin-resistant Enterococcus faecium ATCC 700221 assessed as bacterial growth inhibition measured after 20 hrs by broth dilution method
Staphylococcus aureus [20] = assay: Ratio of MBC to MIC against methicillin-resistant Staphylococcus aureus ATCC 33591
[21] = tested on: Staphylococcus epidermidis; assay: Antibacterial activity against Staphylococcus epidermidis ATCC 51625 assessed as bacterial growth inhibition measured after 20 hrs by broth dilution method
Staphylococcus aureus [22] = assay: Ratio of MBC to MIC against methicillin-resistant Staphylococcus aureus clinical isolate 202311772
Enterococcus faecium [23] = assay: Ratio of MBC to MIC against vancomycin-resistant Enterococcus faecium ATCC 51559
Enterococcus faecium [24] = assay: Antibacterial activity against vancomycin-resistant Enterococcus faecium clinical isolate 202308456 assessed as bacterial growth inhibition measured after 20 hrs by broth dilution method
Staphylococcus aureus [25] = assay: Ratio of MBC to MIC against methicillin-resistant Staphylococcus aureus clinical isolate 202313160
Streptococcus pneumoniae [26] = assay: Ratio of MBC to MIC against penicillin-resistant Streptococcus pneumoniae ATCC 51916

| SMILES | MIC (Streptococcus pneumoniae [1]) | MIC (Staphylococcus aureus [2]) | Ratio (Enterococcus faecium [4]) | MIC (Streptococcus pneumoniae [5]) | MIC [6] | Ratio (Streptococcus pneumoniae [7]) | MIC (Staphylococcus aureus [8]) | MIC (Staphylococcus aureus [10]) | MIC (Staphylococcus aureus [11]) | MIC [12] | Ratio [13] | MIC (Enterococcus faecium [14]) | Ratio (Enterococcus faecium [16]) | Ratio (Staphylococcus aureus [17]) | MIC (Staphylococcus aureus [18]) | MIC (Enterococcus faecium [19]) | MIC [21] | Ratio (Staphylococcus aureus [22]) | Ratio (Enterococcus faecium [23]) | MIC (Enterococcus faecium [24]) | other results |
| --- | --- | --- | --- | --- | --- | --- | --- | --- | --- | --- | --- | --- | --- | --- | --- | --- | --- | --- | --- | --- | --- |
| C=C[C@]1(C)C[C@@H](OC(=O)CSc2cc(=O)oc3ccc(F)cc23)[C@]2(C)[C@H](C)CC[C@]3(CCC(=O)[C@H]32)[C@@H](C)[C@@H]1O | 0.125 µg/mL (≈ 0.225 µM) | 0.063 µg/mL (≈ 0.113 µM) | >4 | 0.063 µg/mL (≈ 0.113 µM) | 0.063 µg/mL (≈ 0.113 µM) | >4 | 0.063 µg/mL (≈ 0.113 µM) | 0.031 µg/mL (≈ 0.0557 µM) | 0.031 µg/mL (≈ 0.0557 µM) | 0.125 µg/mL (≈ 0.225 µM) | 4 | 0.063 µg/mL (≈ 0.113 µM) | 4 | 4 | 0.063 µg/mL (≈ 0.113 µM) | 0.031 µg/mL (≈ 0.0557 µM) | 0.031 µg/mL (≈ 0.0557 µM) | >4 | 2 | 0.031 µg/mL (≈ 0.0557 µM) | Ratio (Staphylococcus aureus [3]): >4; Ratio [9]: 2; Ratio [15]: >4; Ratio (Staphylococcus aureus [20]): >4 |
| C=C[C@]1(C)C[C@@H](OC(=O)CSc2cc(=O)oc3cc(Cl)ccc23)[C@]2(C)[C@H](C)CC[C@]3(CCC(=O)[C@H]32)[C@@H](C)[C@@H]1O | 0.125 µg/mL (≈ 0.218 µM) | 0.125 µg/mL (≈ 0.218 µM) | >4 | 0.063 µg/mL (≈ 0.11 µM) | 0.125 µg/mL (≈ 0.218 µM) | 4 | 0.063 µg/mL (≈ 0.11 µM) | 0.031 µg/mL (≈ 0.0541 µM) | 0.031 µg/mL (≈ 0.0541 µM) | 0.125 µg/mL (≈ 0.218 µM) | >4 | 0.063 µg/mL (≈ 0.11 µM) | 2 | 4 | 0.25 µg/mL (≈ 0.436 µM) | 0.031 µg/mL (≈ 0.0541 µM) | 0.031 µg/mL (≈ 0.0541 µM) | >4 | 2 | 0.063 µg/mL (≈ 0.11 µM) | Ratio (Staphylococcus aureus [3]): >4; Ratio (Staphylococcus aureus [25]): >4; Ratio [15]: 2; Ratio (Staphylococcus aureus [20]): >4 |
| C=C[C@]1(C)C[C@@H](OC(=O)CSc2cc(=O)oc3cc(Br)ccc23)[C@]2(C)[C@H](C)CC[C@]3(CCC(=O)[C@H]32)[C@@H](C)[C@@H]1O | 0.125 µg/mL (≈ 0.202 µM) | 0.125 µg/mL (≈ 0.202 µM) | 2 | 0.063 µg/mL (≈ 0.102 µM) | 0.125 µg/mL (≈ 0.202 µM) | >4 | 0.063 µg/mL (≈ 0.102 µM) | 0.031 µg/mL (≈ 0.0502 µM) | 0.031 µg/mL (≈ 0.0502 µM) | 0.125 µg/mL (≈ 0.202 µM) | 4 | 0.063 µg/mL (≈ 0.102 µM) | 2 | >4 | 0.063 µg/mL (≈ 0.102 µM) | 0.031 µg/mL (≈ 0.0502 µM) | 0.031 µg/mL (≈ 0.0502 µM) | 1 | 1 | 0.063 µg/mL (≈ 0.102 µM) | Ratio (Staphylococcus aureus [3]): 2; Ratio (Staphylococcus aureus [25]): 4; Ratio [9]: >4 |
| C=C[C@]1(C)C[C@@H](OC(=O)CO)[C@]2(C)[C@H](C)CC[C@]3(CCC(=O)[C@H]32)[C@@H](C)[C@@H]1O [PLEUROMULIN] | 4 µg/mL (≈ 10.6 µM) | 0.5 µg/mL (≈ 1.32 µM) | 2 | 2 µg/mL (≈ 5.28 µM) | 0.25 µg/mL (≈ 0.66 µM) | 2 | 1 µg/mL (≈ 2.64 µM) | 0.5 µg/mL (≈ 1.32 µM) | 0.25 µg/mL (≈ 0.66 µM) | 0.25 µg/mL (≈ 0.66 µM) | >4 | 2 µg/mL (≈ 5.28 µM) | >4 | 2 | 0.5 µg/mL (≈ 1.32 µM) | 0.5 µg/mL (≈ 1.32 µM) | 1 µg/mL (≈ 2.64 µM) | >4 | 2 | 0.5 µg/mL (≈ 1.32 µM) | Ratio (Staphylococcus aureus [25]): >4; Ratio [9]: 4; Ratio (Streptococcus pneumoniae [26]): 4; Ratio (Staphylococcus aureus [20]): 4 |
